In patent US20200087258A1, “INHIBITOR OF CITRATE TRANSPORTER AND THEIR USE IN THERAPY” (Eternygen GmbH, priority 2017, published 2020):

Tests used:
[1] = target: T1, INDY (Homo sapiens, UniProt Q86YT5); assay: 14C-citrate uptake in HEK293 cells overexpressing recombinant human INDY (NaCT); assay type: cell-based; design: expressed in transfected cells; host or cells: HEK293
Summary of the method: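 HEK293 cells overexpressing human NaCT, 50,000/well, preincubated 5-30 min at 37 °C with compound in pH 6.5 Na+ buffer. 14C-citrate ([…]) uptake then ran 20-90 min at 37 °C, followed by ice-cold washes, NaOH lysis and scintillation counting. 10 mM citrate served as positive control.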

[2] = target: T1, INDY; assay: 14C-citrate uptake in HepG2 cells endogenously expressing INDY (NaCT); assay type: cell-based; settings: endogenous INDY
Procedure: The compound was obtained by screening of a library containing more than 50,000 lead-like compounds and fragments. The library was tested using a functional citrate uptake assay with HEK293 cells overexpressing recombinant human INDY. The following hit confirmation was conducted in the same assay system. To confirm the activity of selected compounds on the target INDY another cell assay was conducted. In this assay system citrate uptake was measured using HepG2 cells which endogenously express INDY. Furthermore selectivity of selected compounds was tested for two other transporters in different assay systems. The first transporter was the glutamate transporter GLT-1 tested in a glutamate uptake assays using HEK293 cells overexpressing recombinant human GLT-1. The second transporter was the glucose transporter GLUT1 tested in a glucose uptake assay using Huh-7 cells which endogenously express GLUT1. Compounds were considered to be selective with an at least 5-fold higher activity for INDY than for the other two transporters.
Cells were maintained in cell medium using cell culture grade flasks (CellSTACK Corning, 500 cm2 dishes or T175 depending on cell number). The selection antibiotic and G418 (800 μg/ml) was added during cultivation but not for seeding into assay plates. For splitting, cells were washed with PBS (w/o Ca2+, Mg2+, phenol red) and detached with Trypsin/EDTA. Throughout cultivation cells were kept sub-confluent. Detached cells (50,000 cells/well) were seeded in 96-well plates (white, clear bottom from Corning #655098) and incubated over night before usage in the assay. The following media were used. For HEK293 cells expressing INDY MEM (PAA)+10% FCS+1×P/S+2 mM L-Gln; for HEK293 cells expressing GLT-1 DMEM (Gibco)+10% FCS+400 µg/ml G418; for Huh7 cells DMEM (Gibco)+10% FCS+2 mM L-Gin (+1×P/S); for HepG2 cells MEM (PAA, Cat # E15-024)+10% FCS+2 mM L-Gin+1×NEAA+1 mM Na-Pyruvat
The following assay buffers for the particular uptake reaction were used. Citrate uptake buffer: 120 mM NaCl, 5.4 mM KCl, 0.8 mM MgSO4, 5 mM glucose, 1.8 mM CaCl2, 25 mM Hepes, 25 mM MES, pH 6.5. Glutamate uptake buffer: HBSS, 1 mM CaCl2, 1 mM MgCl2, 20 mM Hepes pH 7.4. Glucose uptake buffer: 25 mM Hepes+25 mM MES pH 7.4, 120 mM NaCl, 5.4 mM KCl, 1.8 mM CaCl2, 0.8 mM MgSO4.
INDY mediated citrate uptake was also determined in HepG2 cells. To determine the uptake of ^14C labelled citrate into cells, HepG2 cells endogenously expressing human NaCT were used. (Gopal et al. 2007 Am J Physiol Gastrointest Liver Physiol 292).
HepG2 cells were seeded into white clear-bottom 96-well plates (50,000/well) coated with collagen and incubated at 37° C. for 16-24 hours. After that plates were washed once with assay buffer using automated washing/LS 405 Selectors, BioTek ending with a buffer volume of 40 μl. Then 5 μl of compound solution in assay buffer was added and incubated for 5 min at 37° C. in cell incubator, HERA cell Heraeus. Afterwards 10 μl of substrate 14C-citrate (10 nM) were added and incubated for another 90 min at 37° C. in cell incubator, HERAcell. Then plates were washed 3× with 200 μl buffer and […] cell lysis induced by adding 50 μl ice-cold NaOH (100 mM). Plates were incubated for 25 min at RT on a plate shaker and afterwards 200 μl scintillation fluid was added and incubated for 15 min on a plate shaker at RT and for another 15 min without shaking at RT. Plates were measured using a TopCount system. As a positive control 5 mM citrate was applied. It is possible to use this assay also in analogy in a 384-well plate format.

T1 sequence (Q86YT5 whole entry): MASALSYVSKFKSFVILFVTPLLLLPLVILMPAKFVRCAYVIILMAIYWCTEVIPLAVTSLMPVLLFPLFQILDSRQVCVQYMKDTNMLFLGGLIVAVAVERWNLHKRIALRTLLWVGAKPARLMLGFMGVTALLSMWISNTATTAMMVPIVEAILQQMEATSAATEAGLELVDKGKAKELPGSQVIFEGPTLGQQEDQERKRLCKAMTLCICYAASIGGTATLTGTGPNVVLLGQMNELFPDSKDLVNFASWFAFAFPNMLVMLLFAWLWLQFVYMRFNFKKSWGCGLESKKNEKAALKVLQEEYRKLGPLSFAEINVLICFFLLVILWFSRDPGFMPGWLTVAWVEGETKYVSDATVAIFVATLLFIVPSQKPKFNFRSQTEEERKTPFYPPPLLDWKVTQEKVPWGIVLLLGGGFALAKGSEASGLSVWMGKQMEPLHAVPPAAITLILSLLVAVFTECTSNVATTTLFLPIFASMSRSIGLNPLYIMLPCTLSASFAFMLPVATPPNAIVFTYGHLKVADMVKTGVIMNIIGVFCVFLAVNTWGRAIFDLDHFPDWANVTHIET

SMILES | IC50 [1] [µM] | IC50 [2] [µM]
O=C(NCc1ccccc1F)C1CCN(S(=O)(=O)c2cccc(Cl)c2)CC1 [Example 59, 1-(3-chlorobenzenesulfonyl)-N-[(2-fluorophenyl)methyl]piperidine-4-carboxamide] | 1.1 | 0.9
O=C(NCc1ccccn1)C1CCN(S(=O)(=O)c2cc(Cl)ccc2Cl)CC1 [Example 62, 1-(2,5-dichlorobenzenesulfonyl)-N-[(pyridin-2-yl)methyl]piperidine-4-carboxamide] | 8.2 | 4.6
O=C(NCc1ccccn1)C1CCN(S(=O)(=O)c2ccc(Cl)c(Cl)c2)CC1 [Example 67, 1-(3,4-dichlorobenzenesulfonyl)-N-[(pyridin-2-yl)methyl]piperidine-4-carboxamide] | 18.3 | 7.2
O=C(NCc1ccccn1)C1CCN(S(=O)(=O)c2cccc(C(F)(F)F)c2)CC1 [Example 75, N-[(pyridin-2-yl)methyl]-1-[3-(trifluoromethyl)benzenesulfonyl]pipendine-4-carboxamide] | 5.7 | 3.3
O=C(NCc1ccccn1)C1CCN(S(=O)(=O)c2cc(F)cc(Cl)c2)CC1 [Example 78, 1-(3-chloro-5-fluorobenzenesulfonyl)-N-[(pyridin-2-yl)methyl]pipendine-4-carboxamide] | 4.9 | 2.4
O=C(NCc1ccccn1)C1CCN(S(=O)(=O)c2cc(F)cc(C(F)(F)F)c2)CC1 [Example 84, 1-[3-fluoro-5-(trifluoromethyl)benzenesulfonyl]-N-[(pyridin-2-yl)methyl]pipendine-4-carboxamide] | 4.3 | 2.2
O=C(NCc1ccccn1)C1CCN(S(=O)(=O)c2cccc(S(F)(F)(F)(F)F)c2)CC1 [Example 85, 1-[3-(pentafluoro-lambda6-sulfanyl)benzenesulfonyl]-N-[(pyridin-2-yl)methyl]pipendine-4-carboxamide] | 6.4 | 3
O=C(NCc1ccccn1)C1CCN(S(=O)(=O)c2ccc(I)cc2)CC1 [Example 95, 1-(4-iodobenzenesulfonyl)-N-[(pyridin-2-yl)methyl]piperidine-4-carboxamide] | 5.5 | 2.4
O=C(NCc1ccccn1)C1CCN(S(=O)(=O)c2ccc(C3CC3)cc2)CC1 [Example 97, 1-(4-cyclopropylbenzenesulfonyl)-N-[(pyridin-2-yl)methyl]piperidine-4-carboxamide] | 9.2 | 3.8
O=C(NCc1ccccn1)C1CCN(S(=O)(=O)c2ccc(CC(F)(F)F)cc2)CC1 [Example 99, N-[(pyridin-2-yl)methyl]-1-[4-(2,2,2-trifluoroethyl)benzenesulfonyl]piperidine-4-carboxamide] | 6.3 | 3.2
O=C(NCc1cccc(F)c1)C1CCN(S(=O)(=O)c2cc(Cl)cc(Cl)c2)CC1 [Example 115, 1-(3,5-dichlorobenzenesulfonyl)-N-[(3-fluorophenyl)methyl]piperidine-4-carboxamide] | 0.2 | 0.1
O=C(NCc1cccc(CO)c1)C1CCN(S(=O)(=O)c2cc(Cl)cc(Cl)c2)CC1 [Example 117, 1-(3,5-dichlorobenzenesulfonyl)-N-{[3-(hydroxymethyl)phenyl]methyl}piperidine-4-carboxamide] | 0.8 | 0.5
COC(=O)c1cccc(CNC(=O)C2CCN(S(=O)(=O)c3cc(Cl)cc(Cl)c3)CC2)c1 [Example 118, methyl 3-({[1-(3,5-dichlorobenzenesulfonyl)piperidin-4-yl]formamido}methyl)benzoate] | 5.7 | 4
O=C(NCc1ccccn1)C1CN(S(=O)(=O)c2cc(Cl)cc(Cl)c2)C1 [Example 120, 1-(3,5-dichlorobenzenesulfonyl)-N-[(pyridin-2-yl)methyl]azetidine-3-carboxamide] | 7.5 | 2.8
O=C(NCc1ccccn1)C1CCN(S(=O)(=O)c2cc(C(F)(F)F)cc(C(F)(F)F)c2)CC1 [Example 127, 1-[3,5-bis(trifluoromethyl)benzenesulfonyl]-N-[(pyridin-2-yl)methyl]piperidine-4-carboxamide] | 3.2 | 1.2
O=C(NCc1ccccn1)C1CCN(S(=O)(=O)c2ccc(C3CCCC3)cc2)CC1 [Example 129, 1-(4-cyclopentylbenzenesulfonyl)-N-[(pyridin-2-yl)methyl]piperidine-4-carboxamide] | 1.6 | 7.4
O=C(NCc1ccccn1)C1CCN(S(=O)(=O)c2ccc(C3CCCCC3)cc2)CC1 [Example 131, 1-(4-cyclohexylbenzenesulfonyl)-N-[(pyridin-2-yl)methyl]piperidine-4-carboxamide] | 6.1 | 4.7

Further compounds by falling IC50 [1], results first:

IC50 [1] [µM] | IC50 [2] [µM] | SMILES
11.7 | 4.5 | O=C(NCc1ccccc1CO)C1CCN(S(=O)(=O)/C=C/c2ccccc2)CC1 [Example 69, N-{[2-(hydroxymethyl)phenyl]methyl}-1-[(E)-2-phenylethenesulfonyl]pipendine-4-carboxamide]
7.1 | 5.1 | O=C(NCc1ccccn1)C1CCN(S(=O)(=O)c2ccc(C(F)(F)F)cc2Cl)CC1 [Example 74, 1-[2-chloro-4-(trifluoromethyl)benzenesulfonyl]-N-[(pyridin-2-yl)methyl]piperidine-4-carboxamide]
5.9 | 2.3 | O=C(NCc1ccccn1)C1CCN(S(=O)(=O)c2cc(Cl)cc(C3COC3)c2)CC1 [Example 116, 1-[3-chloro-5-(oxetan-3-yl)benzenesulfonyl]-N-[(pyridin-2-yl)methyl]piperidine-4-carboxamide]
2 | 1.3 | O=C(NCc1ccc(O)cc1)C1CCN(S(=O)(=O)c2cc(Cl)cc(Cl)c2)CC1 [Example 123, 1-(3,5-dichlorobenzenesulfonyl)-N-[(4-hydroxyphenyl)methyl]piperidine-4-carboxamide]
1.8 | 0.9 | Nc1ccc(CNC(=O)C2CCN(S(=O)(=O)c3cc(Cl)cc(Cl)c3)CC2)cc1 [Example 124, N-[(4-aminophenyl)methyl]-1-(3,5-dichlorobenzenesulfonyl)piperidine-4-carboxamide]
0.8 | 0.5 | O=C(NCc1ccccn1)C1CCN(S(=O)(=O)c2ccc(C3(C(F)(F)F)CC3)cc2)CC1 [Example 125, N-[(pyridin-2-yl)methyl]-1-{4-[1-(trifluoromethyl)cyclopropyl]benzenesulfonyl}piperidine-4-carboxamide]
0.7 | 0.6 | O=C(NCc1cccc(O)c1)C1CCN(S(=O)(=O)c2cc(Cl)cc(Cl)c2)CC1 [Example 114, 1-(3,5-dichlorobenzenesulfonyl)-N-[(3-hydroxyphenyl)methyl]piperidine-4-carboxamide]
0.7 | 0.5 | O=C(NCc1ccccn1)C1CCN(S(=O)(=O)c2cc(Cl)cc(C(F)(F)F)c2)CC1 [Example 130, 1-[3-chloro-5-(trifluoromethyl)benzenesulfonyl]-N-[(pyridin-2-yl)methyl]piperidine-4-carboxamide]
0.5 | 0.4 | O=C(NCc1ccccn1)C1CCN(S(=O)(=O)c2cc(Br)cc(C(F)(F)F)c2)CC1 [Example 126, 1-[3-bromo-5-(trifluoromethyl)benzenesulfonyl]-N-[(pyridin-2-yl)methyl]piperidine-4-carboxamide]
